Results on two compounds are retold here after patent US12030896B2, “PIKfyve inhibitors” (Mayo Foundation for Medical Education and Research, priority 2018, dated 2024).

In one data set the test system is 468 kinases. Put plainly: Kinase selectivity panel (Treespot dendrogram). The format is binding. The settings on record: for number of kinases blocked to 1% activity level / number of kinases blocked to 10% activity level / number of kinases blocked to 35% activity level: 5000 nM; for selectivity for PIKfyve: comparison of Example 1, Example 3 and apilimod. How it is done: In contrast, 50 nM Apilimod inhibited two kinases to 1% or 10%, and 3 kinases to 35% of control. To examine non-specific binding at higher concentrations, Example 1, Example 3, and Apilimod were tested at 5000 nM. […] PIKfyve is represented at the bottom left of each dendrogram.

Data set [1] concerns Glioblastoma (T98G, U251) or colorectal cancer cell lines (HT29, RKO, HCT116). Briefly: Killing of glioblastoma and colorectal cancer cell lines by Example 3. The format is cell-based. How it is done:
Experiments were performed using DMEM-based media for the glioblastoma lines and RMPI-based media for the colorectal lines.

Another data set relates to U251 glioblastoma cell. Briefly: Cell killing in combination with vemurafenib. The format is cell-based, human. On the procedure:
A 25 mM stock of vemurafenib (obtained from Selleckchem) in DMSO was diluted to 2× the indicated concentration into the cell suspension immediately prior to plating the cell suspension onto the pre-diluted Example 1 or Example 3, to result in a final 1× concentration of both compounds.
See FIG. 13 for showing of U251 glioblastoma cell killing by Example 1 alone or in the presence of 10 μM vemurafenib over a 72 hour time course.

The subject of data set [2] is Human colorectal carcinoma cell lines (HCT116, HT29). Put plainly: Killing of colorectal carcinoma cell lines (Cell-titer glow). In kind it is cell-based. The settings on record: HCT116, HT29 vs brain tumor cell lines. On the procedure: Human colorectal carcinoma cell lines were similarly tested for killing by the compound. (ATP activity is defined by use of the Cell-titer glow luminescence assay). […] All experiments were performed using RPMI media (Life Technologies) as the base formulation for “complete” media. HT29 cells require physical scraping in addition to trypsin to dissociate from tissue culture plastic.

The test system of data set [3] is Human osteosarcoma cells (U2OS, 143B, MG63, and SAOS2) and human pancreatic cancer cells (Panc-1, CFPAC). Put plainly: Killing of osteosarcoma and pancreatic cell lines (Alamar Blue). The format is cell-based. The settings on record: 72 hrs. On the procedure:
Human osteosarcoma cells (U2OS, 143B, MG63, and SAOS2) and human pancreatic cancer cells (Panc-1, CFPAC) were similarly tested for killing by the compound, as shown in FIG. 5. All experiments in FIG. 5 were performed using DMEM:F12 media (Life Technologies) as the base formulation for “complete” media for experiments with 143B and MG63 cells. Also, Alamar Blue was used to assay the relative number of viable cells per well after 72 hrs of growth. For these assays, growth media was removed from the cells, and replaced with fresh (“complete) media containing Alamar Blue reagent (Life Technologies) diluted 1:10. Plates were incubated at 5% CO2, 37° C. for 40 min then removed from the incubator and fluorescence was measured using a Synergy H1 microplate reader (Excitation: 560 nm Emission: 590 nm). Values represent raw photo counts minus the value of a well with Alamar Blue reagent (1:10 in medium) but no cells.
Background: Alamar Blue is a resazurin reagent that responds to reducing activity.

Data set [4] relates to Murine lymphoma cells (E2409, EC+F). Briefly: Killing of murine lymphoma cells, 48 hour assay. In kind it is cell-based. How it is done:
All experiments in FIG. 6 were performed using RPMI media (Life Technologies) was used as the base formulation and culture medium also contained 1 mM Sodium Pyruvate, 100 mM HEPES, 2 mM additional L-Glutamine, 55 uM 2-mercaptoethanol, and 1×MEM NEAA Solution (all from Life Technologies). Trypsin was not necessary for these non-adherent cells. Presto Blue reagent (Life Technologies) was used as an endpoint assay using the same procedure described in previously for Alamar Blue, with a 30 minute incubation time.

For data set [5], the system named is Human lymphoma cell lines. Put plainly: Killing of human lymphoma cell lines. The format is cell-based. The settings on record: 72 hours. How it is done: Human lymphoma cell lines were incubated for 72 hours with various concentrations of the compound, and survival determined by cell counting or by ATP assay, as shown in FIG. 7. In the lymphoma experiments, RPMI media (Life Technologies) was used as the base formulation for “complete” media. Trypsin was not needed for these non-adherent cell lines. For the “cell-counting” data, cells were pipetted up and down to evenly disburse, then 10 μL of the suspension was counted using an Accuri C6 cytometer, using on forward and side scatter to gate on a viable population.

A further data set deals with murine lymphoma cells. Briefly: Vacuolization seen by light microscopy. In kind it is cell-based. How it is done: Vacuolization due to treatment with Example 1 compound was extremely rapid, becoming visible by light microscopy within 30 minutes or less.
Another data set has as its system U251 glioblastoma cells. Briefly: LC3 / p62 western blotting (autophagy). The format is cell-based, human. On the procedure:
Macroautophagy (hereafter “autophagy”) is a process that requires precise fusion of endosomes, autophagosomes, and lysosomes. Lysates from cells treated with Example 1 were prepared and probed by western blotting for LC3-I and LC3-II. Increased levels of LC3-II and increased p62 (sequestesome) were found showing the increased drive to undergo autophagy, in the face of inability to complete the process (i.e. ineffective autophagy). Lysosomes are the final destination of proteins destined for degradation by autophagy, and proteolysis in this organelle depends upon cathepsins among other enzymes.
FIG. 23 contains images showing induction of autophagy the Example 1 as evidenced by accumulation of LC3 over time. U251 glioblastoma cells were treated with 25, 500, or 20,000 nM MC042 for the indicated time periods, and then lysates prepared and blotted for LC3 and tubulin (loading control). Starting a t 6 hours, and becoming more evident by 24 hours, LC3-II (the lower band marked LC3) accumulated, indicating activation of autophagy.

For another data set, the system named is RKO (colon cancer) cells. Put plainly: LC3 western blotting (autophagy). The settings on record: 1 μM. The format is cell-based.
Data set [6] relates to E2409 murine lymphoma cells. Briefly: E2409 lymphoma flank tumor survival study. In kind it is in vivo, Nude mice. The note with it: 1 mg daily IP injection vs vehicle only; p<0.02. On the procedure: Nude mice were injected in the flank with 1 million E2409 murine lymphoma cells, and allowed to grow for 4 days, at which point a small detectable lump was observed on each mouse. Mice were injected daily by IP injection with 100 μl of vehicle (10% dmso, 20% cremaphor, 70% water) with or without 1 mg of the test compound. Mice were euthanized when tumor size exceeded 1500 mm^3.

The nature of a further data set: Solubility. In kind it is physicochemical. How it is done:
The compound has a molecular weight of 428.5. It is soluble in DMSO. In addition, solutions of at least 10 mg/ml can be prepared using a mixture of DMSO (10%), cremaphor (20%), and water (70%).

“Also recorded” adds a separate entry of the source. Some results are limits rather than exact numbers.

For the compound `Cc1ccc(Nc2nc(N/N=C/c3c[nH]c4ccccc34)cc(N3CCOCC3)n2)cc1` [Example 3, (E)-4-(2-((1H-indol-3-yl)methylene)hydrazinyl)-6-morpholino-N-(p-tolyl)pyrimidin-2-amine], in the data set on 468 kinases, the “number of kinases blocked to 1% activity level” value is 1, the “number of kinases blocked to 10% activity level” value stood at 1, the “number of kinases blocked to 35% activity level” value worked out at 4 and the “selectivity for PIKfyve” value is reported as “more selective; also recorded: highest selectivity”. Further, the sensitivity to killing result in [1] is listed as “sensitive to killing”. Besides, the “killing U251 in combination with vemurafenib” value in the data set on U251 glioblastoma cell is “synergistic”.

Turning to `Cc1ccc(Nc2nc(N/N=C/c3c[nH]c4ccccc34)nc(N3CCOCC3)n2)cc1` [Example 1, (E)-4-(2-((1H-indol-3-yl)methylene)hydrazinyl)-6-morpholino-N-(p-tolyl)-1,3,5-triazin-2-amine], in the data set with 468 kinases (50 nM, 468 kinases), the “number of kinases blocked to 1% of control” value turned out to be 1, the “number of kinases blocked to 10% of control” value was “did not block other kinases” and the “number of kinases blocked to 35% of control” value was “did not block other kinases”. In the data set on 468 kinases, the “number of kinases blocked to 1% activity level” value is recorded as 2, the “number of kinases blocked to 10% activity level” value worked out at 4, the “number of kinases blocked to 35% activity level” value amounted to 11 and the “selectivity for PIKfyve” value is listed as “more selective”. For the same compound, the “sensitivity to compound-induced death” value in [2] was “more sensitive”. For the same compound, the cell killing entry in data set [3] is reported as “killing”. For the same compound, the cell killing result in data set [4] is reported as “killed by relatively low concentrations”. For the same compound, in data set [5], the cell killing entry is given as “killing”. Further, in the data set with murine lymphoma cells, the “time until vacuolization visible by light microscopy” value is not above 30 min. Further, in the data set on U251 glioblastoma cells (1 μM), the “induction of LC3” value is reported as “less robust”. For the same compound, in the data set on U251 glioblastoma cells (25, 500, or 20,000 nM), the p62 degradation result is “not degraded”. Further, the LC3-II level entry in the data set with U251 glioblastoma cells (25, 500, or 20,000 nM, starting at 6 hours, more evident by 24 hours) is listed as “accumulated”. In the data set with RKO (colon cancer) cells, the “induction of LC3” value is “dramatic and rapid induction”. Also, the “cell killing on addition of vemurafenib” value with U251 glioblastoma cell (low concentrations of Example 1 (e.g., 0.5 μM) + 10 μM vemurafenib, 72 hour) is “significantly improves cell killing”. The survival entry in [6] is listed as “prolonged survival”. In addition, the “solubility in DMSO” value in “Solubility” (DMSO) was “soluble”. Moreover, the “concentration of solutions that can be prepared” value in the data set “Solubility” (DMSO (10%), cremaphor (20%), and water (70%)) is reported as “at least 10 mg/ml”.
